Values of other authors, collected in patent US8076449B2, “Therapeutic agents of colivelin for neurodegenerative diseases” (Tomohiro Chiba, priority 2004, dated 2011).

Experiments:
[1] = tested on: F11 cells transformed with M146L-PS1; details: as already reported; cited from earlier work
[2] = tested on: primary cultured cortical neurons treated with Aβ (1-43); details: Aβ (1-43) neurotoxicity; stated as known fact; cited from earlier work

HNG: Humanin (HN) derivative whose serine residue at the position 14 is replaced by glycine (MAPRGFSCLLLLTGEIDLPVKRRA; Humanin; UniProt Q8IVG9 1-24, looked up, variant S14G)
concentration completely suppressing cell death caused by M146L-PS1 [1]: 100 nM | concentration exerting complete protective action [2]: 10 nM
